Test results taken from US10791741B2, “Plant growth regulator” (JIANGSU HUIFENG BIO TECHNOLOGY CO., LTD., priority 2016, dated 2020).

Tested on: melon
Test: Comprehensive test on growth regulation for melon by thidiazuron combined with amino-oligosaccharin
Assay type: in vivo
Details: 42 mg/kg
Procedure: 1. Comprehensive Test on Growth Regulation for Melon by Thidiazuron Combined with Amino-Oligosaccharin
The thidiazuron and amino-oligosaccharin were diluted with acetone to give a series of concentrations, and the crops were sprayed in the flowering phase to determine the effect of each concentration on crop growth in the field, so as to make a comprehensive evaluation with respect to the carpopodium diameter, fruit setting rate, disease inhibition rate, quality, and yield of the crops. Carpopodium diameter increase rate=(Plant height in water control group−Plant height in treatment group)/Plant height in water control group*100% Fruit setting increase rate=(Stem diameter in treatment group−Stem diameter in water control group)/Stem diameter in water control group*100% Disease reduction rate=(Disease index in water control group−Disease index in treatment group)/Disease index in water control group*100% Single fruit weight increase rate=(weight in treatment group−quality in water control group)/weight in water control group*100% Central sugar increase rate=(Central sugar content in treatment group−Central sugar content in water control group)/Central sugar content in water control group*100%

[1] = flowering phase, vs water control
[2] = sprayed in flowering phase, 1 application

O=C(Nc1ccccc1)Nc1cnns1 [Thidiazuron, thidiazuron]
Anthracnose index reduction rate (disease reduction rate) [1]: 17.6% | Carpopodium diameter increase rate [1]: 4.0% | Central sugar increase rate [1]: 7.4% | Fruit setting increase rate [1]: 8.6% | Single fruit weight increase rate [1]: 8.9% | Anthracnose index [2]: 17.76 | Carpopodium diameter [2]: 6.65 mm | Central sugar content [2]: 9.36% | Fruit setting rate [2]: 27.0% | Single fruit weight [2]: 1.03 kg
